Each structure is given as a SMILES string.

Among the data in ChEMBL document CHEMBL5058541, “EUbOPEN Chemogenomics Library 2 (NanoBRET)” (2022) are ΔTm values, retold here.

The target of assay [1] is Fibroblast growth factor receptor 3 (Homo sapiens) (UniProt P22607). Particulars: Compound concentration 20.0 uM, Protein concentration 2.0 uM, Result type QC Liability.
Description: Thermal Shift Assay. Domain: start/stop: P449-E759
The next assay deals with T1, Peregrin (Homo sapiens) (UniProt P55201).
T1 sequence (whole entry): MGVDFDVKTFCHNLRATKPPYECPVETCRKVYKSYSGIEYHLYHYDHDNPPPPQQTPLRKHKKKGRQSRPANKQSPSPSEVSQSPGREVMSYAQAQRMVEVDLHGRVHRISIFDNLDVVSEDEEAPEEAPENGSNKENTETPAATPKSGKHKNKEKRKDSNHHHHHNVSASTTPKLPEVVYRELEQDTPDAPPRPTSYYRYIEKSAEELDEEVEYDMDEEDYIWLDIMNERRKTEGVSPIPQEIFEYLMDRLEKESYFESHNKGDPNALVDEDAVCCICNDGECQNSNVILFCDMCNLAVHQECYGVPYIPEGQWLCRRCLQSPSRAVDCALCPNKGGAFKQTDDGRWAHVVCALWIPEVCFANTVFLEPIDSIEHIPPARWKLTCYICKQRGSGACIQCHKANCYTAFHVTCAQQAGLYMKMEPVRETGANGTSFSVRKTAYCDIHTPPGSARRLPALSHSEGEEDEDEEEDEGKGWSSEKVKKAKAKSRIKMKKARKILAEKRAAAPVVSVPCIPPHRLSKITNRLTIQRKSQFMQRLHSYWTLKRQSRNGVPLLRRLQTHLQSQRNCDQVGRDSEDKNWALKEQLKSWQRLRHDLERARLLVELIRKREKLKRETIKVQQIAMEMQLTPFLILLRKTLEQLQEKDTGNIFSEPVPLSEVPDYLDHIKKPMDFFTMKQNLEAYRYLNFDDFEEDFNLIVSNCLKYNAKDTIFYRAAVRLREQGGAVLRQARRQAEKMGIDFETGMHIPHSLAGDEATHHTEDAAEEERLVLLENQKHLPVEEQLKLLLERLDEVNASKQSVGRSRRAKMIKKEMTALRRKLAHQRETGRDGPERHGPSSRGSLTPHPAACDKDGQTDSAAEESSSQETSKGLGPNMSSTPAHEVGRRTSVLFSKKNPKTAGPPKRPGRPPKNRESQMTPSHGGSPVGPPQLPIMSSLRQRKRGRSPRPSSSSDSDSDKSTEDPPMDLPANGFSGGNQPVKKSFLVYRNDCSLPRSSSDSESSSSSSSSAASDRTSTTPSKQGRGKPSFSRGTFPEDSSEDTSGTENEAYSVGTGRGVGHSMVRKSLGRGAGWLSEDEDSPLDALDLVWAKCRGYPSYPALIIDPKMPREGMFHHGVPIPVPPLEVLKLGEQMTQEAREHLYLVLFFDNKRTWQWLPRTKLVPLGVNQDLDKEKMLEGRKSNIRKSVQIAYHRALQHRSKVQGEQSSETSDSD
As to conditions: Compound concentration 20.0 uM, Protein concentration 2.0 uM, Result type QC Liability.

Chain of Fibroblast growth factor receptor 3 (Homo sapiens) (P22607 23-806 limits assumed): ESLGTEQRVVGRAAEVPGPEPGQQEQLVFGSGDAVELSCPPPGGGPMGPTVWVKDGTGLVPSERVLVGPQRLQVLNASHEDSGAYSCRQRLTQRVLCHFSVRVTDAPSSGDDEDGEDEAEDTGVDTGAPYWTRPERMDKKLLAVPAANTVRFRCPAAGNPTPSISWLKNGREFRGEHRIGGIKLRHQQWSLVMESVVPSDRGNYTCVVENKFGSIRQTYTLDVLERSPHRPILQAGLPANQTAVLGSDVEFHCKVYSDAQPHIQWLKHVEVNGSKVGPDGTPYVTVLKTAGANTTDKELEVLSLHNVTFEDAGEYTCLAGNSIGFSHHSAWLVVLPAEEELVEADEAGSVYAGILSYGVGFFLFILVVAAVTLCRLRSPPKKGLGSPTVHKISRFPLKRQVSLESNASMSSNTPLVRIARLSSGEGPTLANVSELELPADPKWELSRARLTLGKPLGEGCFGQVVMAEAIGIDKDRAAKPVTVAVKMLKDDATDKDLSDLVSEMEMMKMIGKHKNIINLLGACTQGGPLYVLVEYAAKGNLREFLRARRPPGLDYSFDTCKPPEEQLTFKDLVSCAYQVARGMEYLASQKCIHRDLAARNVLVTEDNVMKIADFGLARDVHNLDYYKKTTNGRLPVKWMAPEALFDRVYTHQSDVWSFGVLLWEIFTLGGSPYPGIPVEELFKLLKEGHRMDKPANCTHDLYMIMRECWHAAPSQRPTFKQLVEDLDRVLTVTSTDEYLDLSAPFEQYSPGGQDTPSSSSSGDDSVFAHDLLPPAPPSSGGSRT

Consider `CN(C)C(=O)c1ccc(-c2cc(C(=O)N[C@@H]3CCc4ccccc43)no2)cc1O`, for which the results for the ΔTm (in assay [1]; on Peregrin (Homo sapiens)) were -0.162 c and -0.349 c, respectively.
